# Reference: patent publication US10807959B2, “WDR5-MLL1 inhibitors and modulators” (Vanderbilt University, priority 2018, dated 2020)
# Target: T1, WDR5 (Homo sapiens (Human), UniProt P61964)
# Experiment: Fluorescence polarization anisotropy (FPA) competition assay, displacement of FITC-MLL or 10mer-Thr-FAM peptide
# Assay type: binding
# Conditions: Table B2, WDR5 WIN-site binding affinity; values not less than 1 nM (FPA)
# Text: The assay is run in 384-well format and is read on a BioTek Cytation. […] Replicate values are fit to a 4-parameter fit in XLFit to generate a single IC50 value for each compound that is then converted to a Ki value. Experiments are repeated to generate a 2nd, independent Ki value; values from the two experiments are averaged to produce the reported Ki value for the compound.
row,Ki [nM],Compound
1,2.47,O=C(NCc1cc(Cl)cc(Cl)c1)c1ccc(F)c(CNC2=NCCN2)c1 [Example B17]
2,1.81,COc1cc(OC)cc(C(C)NC(=O)c2ccc(F)c(CNC3=NCCN3)c2)c1 (stereo not drawn) [Example B18]
3,49.8,COc1cc(CN(C)C(=O)c2ccc(F)c(CNC3=NCCN3)c2)cc(OC)c1 [Example B24]
4,1.51,COc1ccc(C(=O)NCc2ccc(Cl)c(C)c2)cc1CNC1=NCCN1 [Example B42]
5,1.06,COc1cc(OC)cc(C(C)NC(=O)c2cc(CNC3=NCCN3)c(F)cc2F)c1 (stereo not drawn) [Example B49]
6,1.76,COc1ccc(C(=O)NCc2ccc(Cl)c(F)c2)cc1CNC1=NCCN1 [Example B41]
7,9.05,O=C(NCc1cc(Cl)ccn1)c1ccc(F)c(CNC2=NCCN2)c1 [Example B16]

row,Compound,Ki [nM]
1,"3-(((4,5-dihydro-1H-imidazol-2-yl)amino)methyl)-N-(3,5-dimethoxybenzyl)-4,5-difluorobenzamide [Example B30]",5.32

# Same assay, conditions: Table C2, WDR5 WIN-site binding affinity; values not less than 1 nM (FPA)
row,Ki [nM],Compound
1,44.1,"COc1cc(OC)cc(C(C)NC(=O)c2ccnc(CNC3=NCCC3)c2)c1 (stereo not drawn) [Example C35, 2-(((3,4-dihydro-2H-pyrrol-5-yl)amino)methyl)-N-(1-(3,5-dimethoxyphenyl)ethyl)isonicotinamide]"

# Target: T1, WDR5
# Experiment: TR-FRET binding assay, displacement of 10mer-Thr-FAM probe from His-tagged WDR5
# Conditions: not given
# Experimental: The LanthaScreenTM Elite Tb-anti-HIS Antibody from ThermoFisher Scientific was used for this purpose. […] The ratio of the 520 and 495 signals are then utilized to generate a dose-response curve to calculate an IC50 value. […] WDR[…] tag protein is used at 2 nM.
row,Ki [nM],Compound
1,0.131,COc1cc(CNC(=O)c2cc(CNC3=NCCN3)cc(-c3ccc(F)nc3C)c2)cc(OC)c1 [Example B63]
2,0.189,Cc1cc(CNC(=O)c2ccc(F)c(CNC3=NCCN3)c2)ccc1Cl [Example B47]
3,0.0385,COc1cc(CNC(=O)c2cc(CNC3=NCCN3)cc(-c3cc(C)cnc3F)c2)cc(OC)c1 [Example B109]
4,0.311,O=C(NCc1ccc(Cl)c(Cl)c1)c1cc(CNC2=NCCN2)cc(-c2ccc(F)nc2F)n1 [Example C2]
5,0.033,Cc1cc(-c2cc(CNC3=NCCN3)cc(C(=O)NCc3cc(Cl)cc(Cl)c3)c2)ccn1 [Example B81]

# Same assay, conditions: Inhibition of WDR5 by TR-FRET assay
row,Compound,Ki [nM]
1,"COc1ccnc(CNC(=O)c2cc(CNC3=NCCN3)cc(-c3ccnc(C)c3)c2)c1 [Example 21, 3-(((4,5-Dihydro-1H-imidazol-2-yl)amino)methyl)-N-((4-methoxypyridin-2-yl)methyl)-5-(2-methylpyridin-4-yl)benzamide]",0.39
2,"Cc1cc(-c2cc(CNC(=N)N)cc(C(=O)NCc3cc(F)cc(Cl)c3)c2)ccn1 [Example 100, N-(3-Chloro-5-fluorobenzyl)-3-(guanidinomethyl)-5-(2-methylpyridin-4-yl)benzamide]",2.4
3,"COc1ccnc(CNC(=O)c2cc(CNC3=NCCN3)cc(-c3cc(C)c(F)cc3OC)c2)c1 [Example 50, 5-(((4,5-Dihydro-1H-imidazol-2-yl)amino)methyl)-4′-fluoro-2′-methoxy-N-((4-methoxypyridin-2-yl)methyl)-5′-methyl-[1,1′-biphenyl]-3-carboxamide]",< 0.1
4,"COc1ncc(Cl)cc1-c1cc(CNC2=NCCN2)cc(C(=O)NCc2ccc(Cl)c(Cl)c2)n1 [Example 86, 5′-Chloro-N-(3,4-dichlorobenzyl)-4-(((4,5-dihydro-1H-imidazol-2-yl)amino)methyl)-2′-methoxy-[2,3′-bipyridine]-6-carboxamide]",< 0.1
5,"COc1cc(CNC(=O)c2cc(CNC3=NCCN3)cc(-c3ccc(F)nc3C)n2)ccn1 [Example 79, 4-(((4,5-Dihydro-1H-imidazol-2-yl)amino)methyl)-6′-fluoro-N-((2-methoxypyridin-4-yl)methyl)-2′-methyl-[2,3′-bipyridine]-6-carboxamide]",5.74
6,"Cc1cc(-c2cc(CNC3=NCCN3)cc(C(=O)NCc3ccc(Cl)c(Cl)c3)n2)ccn1 [Example 82, N-(3,4-Dichlorobenzyl)-4-(((4,5-dihydro-1H-imidazol-2-yl)amino)methyl)-2′-methyl-[2,4′-bipyridine]-6-carboxamide]",0.46
7,"COc1ccnc(CNC(=O)c2cc(CNC3=NCCN3)cc(-c3cnccc3C)c2)c1 [Example 19, 3-(((4,5-Dihydro-1H-imidazol-2-yl)amino)methyl)-N-((4-methoxypyridin-2-yl)methyl)-5-(4-methylpyridin-3-yl)benzamide]",0.45
8,"COc1cc(CNC(=O)c2cc(Cn3ccnc3)cc(-c3ccc(=O)[nH]c3)c2)cc(OC)c1 [Example 145, 3-((1H-Imidazol-1-yl)methyl)-N-(3,5-dimethoxybenzyl)-5-(6-oxo-1,6-dihydropyridin-3-yl)benzamide]",22
9,"Cc1ncc(CNC(=O)c2cc(CNC3=NCCN3)cc(-c3ccc(F)nc3C)c2)cn1 [Example 37, 3-(((4,5-dihydro-1H-imidazol-2-yl)amino)methyl)-5-(6-fluoro-2-methylpyridin-3-yl)-N-((2-methylpyrimidin-5-yl)methyl)benzamide]",2.1
10,"Cc1cc(CNC(=O)c2cc(CNC3=NCCC3)cc(-c3ccc(F)c(CO)c3)c2)ccc1Cl [Example 65, N-(4-chloro-3-methylbenzyl)-5-(((3,4-dihydro-2H-pyrrol-5-yl)amino)methyl)-4′-fluoro-3′-(hydroxymethyl)-[1,1′-biphenyl]-3-carboxamide]",4.3
11,"Cc1cc(CNC(=O)c2cc(CNC3=NCCN3)cc(-c3cnc(F)c(C)c3)c2)ccc1Cl [Example 31, N-(4-Chloro-3-methylbenzyl)-3-(((4,5-dihydro-1H-imidazol-2-yl)amino)methyl)-5-(6-fluoro-5-methylpyridin-3-yl)benzamide]",< 0.1
12,"Cc1cc(F)ccc1-c1cc(CNC2=NCCC2)cc(C(=O)N[C@@H](C)c2ccc(F)c(C(F)(F)F)c2)n1 [Example 97, (S)-4-(((3,4-dihydro-2H-pyrrol-5-yl)amino)methyl)-6-(4-fluoro-2-methylphenyl)-N-(1-(4-fluoro-3-(trifluoromethyl)phenyl)ethyl)picolinamide]",7.3
13,"Cc1nc(F)ccc1-c1cc(CNC2=NCCN2)cc(C(=O)NCc2ccc(=O)[nH]c2)n1 [Example 98, 4-(((4,5-dihydro-1H-imidazol-2-yl)amino)methyl)-6′-fluoro-2′-methyl-N-((6-oxo-1,6-dihydropyridin-3-yl)methyl)-[2,3′-bipyridine]-6-carboxamide]",23
14,"COc1ccnc(CNC(=O)c2cc(CNC(=N)N)cc(-c3ccnc(C)c3)c2)c1 [Example 102, 3-(Guanidinomethyl)-N-((4-methoxypyridin-2-yl)methyl)-5-(2-methylpyridin-4-yl)benzamide]",1
15,"Cc1ncc(CNC(=O)c2cc(CNC3=NCCN3)cc(-c3ccc(F)nc3C)n2)cn1 [Example 80, 4-(((4,5-Dihydro-1H-imidazol-2-yl)amino)methyl)-6′-fluoro-2′-methyl-N-((2-methylpyrimidin-5-yl)methyl)-[2,3′-bipyridine]-6-carboxamide]",22
16,"Cc1cc(-c2cc(CNC3=NCCN3)cc(C(=O)NCc3ccc(Cl)cn3)c2)ccn1 [Example 27, N-((5-chloropyridin-2-yl)methyl)-3-(((4,5-dihydro-1H-imidazol-2-yl)amino)methyl)-5-(2-methylpyridin-4-yl)benzamide]",1.5
17,"COc1cc(CNC(=O)c2cc(CNC3=NCCN3)cc(-c3cnc(F)c(C)c3)c2)cc(OC)c1 [Example 30, 3-(((4,5-Dihydro-1H-imidazol-2-yl)amino)methyl)-N-(3,5-dimethoxybenzyl)-5-(6-fluoro-5-methylpyridin-3-yl)benzamide]",0.33
18,"COc1ccnc(CNC(=O)c2cc(C)c(OC)c(Cn3ccnc3C)c2)c1 [Example 146, 4-Methoxy-N-((4-methoxypyridin-2-yl)methyl)-3-methyl-5-((2-methyl-1H-imidazol-1-yl)methyl)benzamide]",500
19,"COc1cc(CN(C)C(=O)c2cc(CNC3=NCCN3)cc(-c3ccc(F)nc3C)c2)cc(OC)c1 [Example 8, 3-(((4,5-Dihydro-1H-imidazol-2-yl)amino)methyl)-N-(3,5-dimethoxybenzyl)-5-(6-fluoro-2-methylpyridin-3-yl)-N-methylbenzamide]",12
20,"COc1cc(CNC(=O)c2cc(CNC3=NCCN3)cc(-c3ccnc(C)c3)c2)ccc1Cl [Example 17, N-(4-chloro-3-methoxybenzyl)-3-(((4,5-dihydro-1H-imidazol-2-yl)amino)methyl)-5-(2-methylpyridin-4-yl)benzamide]",3.2
21,"COc1cc(CNC(=O)c2cc(CNC3=NCCN3)cc(-c3cnccc3C)c2)ccc1Cl [Example 18, N-(4-Chloro-3-methoxybenzyl)-3-(((4,5-dihydro-1H-imidazol-2-yl)amino)methyl)-5-(4-methylpyridin-3-yl)benzamide]",3.1
22,"COc1ccnc(CNC(=O)c2cc(CNC3=NCCN3)cc(-c3cc(C(F)(F)F)cnc3OC)c2)c1 [Example 46, 3-(((4,5-dihydro-1H-imidazol-2-yl)amino)methyl)-5-(2-methoxy-5-(trifluoromethyl)pyridin-3-yl)-N-((4-methoxypyridin-2-yl)methyl)benzamide]",0.1
23,"Cc1nc(F)ccc1-c1cc(Cn2ccnc2C2CC2)cc(C(=O)NCc2ccc(Cl)c(Cl)c2)c1 [Example 139, 3-((2-Cyclopropyl-1H-imidazol-1-yl)methyl)-N-(3,4-dichlorobenzyl)-5-(6-fluoro-2-methylpyridin-3-yl)benzamide]",1.6
24,"COc1ccc(CNC(=O)c2cc(CNC3=NCCN3)cc(-c3cnccc3C)c2)cc1Cl [Example 14, N-(3-chloro-4-methoxybenzyl)-3-(((4,5-dihydro-1H-imidazol-2-yl)amino)methyl)-5-(4-methylpyridin-3-yl)benzamide]",0.74
25,"COc1ccc(CNC(=O)c2cc(CNC3=NCCN3)cc(-c3ccnc(C)c3)c2)cc1OC [Example 15, 3-(((4,5-dihydro-1H-imidazol-2-yl)amino)methyl)-N-(3,4-dimethoxybenzyl)-5-(2-methylpyridin-4-yl)benzamide]",1.7
